How the values were obtained:
[1] = system: LPS-activated J774A.1 macrophages; experiment: LPS-induced NLRP3 and proIL-1β expression in J774A.1 macrophages (Western blot); type: cell-based, mouse; details: 1 μg/ml LPS 6 h, FIG. 3
Description: (§1) The mouse macrophages cell line J774A.1 and human monocytic leukemia cell line THP-1 was obtained from the American Type Culture Collection (Rockville, Md.) and cultured in RPMI 1640 medium supplemented with 10% heat-inactivated fetal bovine serum (FBS) and 2 mM L-glutamine (all from Life Technologies, Carlsbad, Calif.) at 37° C. in a 5% CO2 incubator. To induce monocyte-to-macrophage differentiation, THP-1 cells were cultured for 48 h in RPMI-1640 medium supplemented with 100 nM phorbol 12-myristate 13-acetate (Sigma-Aldrich).
In FIG. 3, J774A.1 macrophages (2×10^6 cells/2 ml medium/dish) were incubated for 30 min with or without Ginsenoside M1, then for 6 h with or without 1 μg/ml LPS (from Escherichia coli 0111:B4, purchased from Sigma, St. Louis, Mo.) in the continued presence or absence of Ginsenoside M1. The levels of NLRP3 and proIL-1β in the cell lysates were measured by Western blot. […]
J774A.1 macrophages were incubated for 30 min with or without Ginsenoside M1, then for 6 h with or without 1 μg/ml LPS in the continued presence or absence of Ginsenoside M1. The levels of NLRP3 and proIL-1β in the cell lysates were measured by Western blot.

[2] = system: mouse J774A.1 macrophages; experiment: CPPD-induced IL-1β production in LPS-primed J774A.1 macrophages (ELISA); type: cell-based; details: 1 μg/ml LPS 30 min, then 100 μg/ml CPPD 24 h; FIG. 2; p<0.001 compared to CPPD alone
Description: as §1
(§2) In FIGS. 1 and 2, J774A.1 macrophages (1×10^5 cells/500 μl medium/well) were incubated for 30 min with or without Ginsenoside M1, then for 30 min with or without 1 μg/ml LPS (from Escherichia coli 0111:B4, purchased from Sigma, St. Louis, Mo.) in the continued presence or absence of Ginsenoside M1, and then for 24 h with or without 100 μg/ml MSU or 100 μg/ml CPPD (all purchased from InvivoGen, San Diego, Calif.). The levels of IL-1β in the culture medium were measured by ELISA.
(§3) For ELISA assay, 50 μl of biotinylated antibody reagent and 50 μl of culture medium were added to an anti-mouse IL-1β or IL-6 precoated stripwell plate, and incubated at room temperature for 2 h. […] Following the addition of 100 μl of provided stop solution to each well to stop the reaction, the absorbance of the plate was measured by a microplate reader at a 450 nm wavelength. […]

human THP-1 macrophages = experiment: MSU-induced IL-1β, TNF-α and IL-6 production in LPS-primed THP-1 macrophages (ELISA); type: cell-based; details: 1 μg/ml LPS 6 h, then 100 μg/ml MSU 24 h
Description: as §1
(§4) In FIG. 4-6, THP-1 macrophages (1×10^5 cells/500 μl medium/well) were incubated for 6 h with or without 1 μg/ml LPS, then for 30 min with or without Ginsenoside M1, in the continued presence or absence of LPS, and then for 24 h with or without 100 μg/ml MSU. The levels of IL-1β in the culture medium were measured by ELISA.
(§5) For ELISA assay, 50 μl of biotinylated antibody reagent and 50 μl of culture medium were added to an anti-mouse IL-1β or IL-6 precoated stripwell plate, and incubated at room temperature for 2 h. After washing the plate three times with washing buffer, 100 μl of diluted streptavidin-HRP (horseradish peroxidase) concentrate was added to each well and incubated at room temperature for 30 min. The washing process was repeated; then 100 μl of a premixed tetramethylbenzidine substrate solution was added to each well and developed at room temperature in the dark for 30 min. Following the addition of 100 μl of provided stop solution to each well to stop the reaction, the absorbance of the plate was measured by a microplate reader at a 450 nm wavelength.
as §4, with “To confirm the anti-inflammatory activities of Ginsenoside M1, human” for “In FIG. 4-6,”, “macrophages” for “macrophages (1×10^5 cells/500 μl medium/well)”

[3] = system: mouse J774A.1 macrophages; experiment: MSU-induced IL-1β production in LPS-primed J774A.1 macrophages (ELISA); type: cell-based; details: 1 μg/ml LPS 30 min, then 100 μg/ml MSU 24 h; FIG. 1; p<0.001 compared to MSU alone
Description: as §1, §2, §3

C57BL/6 mice = experiment: MSU-induced peritonitis in vivo (acute gout inflammation); set-up: species or system mouse; details: 60 mg/kg oral by gavage day 0, 1, 2, 3 mg MSU i.p., p<0.001 compared to MSU-injection group
Description: In FIG. 7-9, the animal experiments were conducted in accordance with the guidelines of the National Institutes of Health and approved by the Institutional Animal Care and Use Committee of National Ilan University. Male C57BL/6 mice were purchased from the National Laboratory Animal Center (Taipei, Taiwan). The animals were provided a chow diet and water ad libitum under conditions of 22-24° C., 40-70% relative humidity, and a 12 h light-dark cycle. Ginsenoside M1 (60 mg/kg body weight) was oral administered daily by gavage at day 0, 1 and 2. Acute gout inflammation was induced by intraperitoneal injection each mice with 3 mg of MSU in 0.5 mL of phosphate-buffered saline (PBS) at day 0 and day 2 1 h after Ginsenoside M1 administration. Control mice received 0.5 mL PBS without MSU (n=6). After 4 h, all mice were sacrificed using neck breaking, and the mice were intraperitoneally injected with 5 mL of PBS. The peritoneal fluid was then collected, and the volume of peritoneal fluid was about 4 mL from each mouse. The collected peritoneal exudate cells were washed and resuspended in PBS. The cells were stained with fluorescent antibodies against the neutrophils specific surface markers Ly-6G and CD45 (eBioscience, San Diego, Calif., USA) for 20 min at 37° C. in the dark, and the cell populations were sorted using a FACScan flow cytometer (Becton-Dickinson, San Jose, Calif.). The levels of IL-1β and IL-6 in the peritoneal fluid were measured by ELISA.
as §5, with “The washing process was repeated; then 100 μl of a premixed tetramethylbenzidine substrate solution was added to each well and developed at room temperature in the dark for 30 min.” left out

CC(C)=CCC[C@](C)(O[C@@H]1OC(CO)[C@@H](O)[C@@H](O)C1O)[C@H]1CC[C@]2(C)C1[C@H](O)CC1[C@@]3(C)CC[C@H](O)C(C)(C)C3CC[C@]12C (stereo partly drawn) [Ginsenoside M1, 20-O-β-D-glucopyranosyl-20(S)-protopanaxadiol]
level of NLRP3 in the cell lysates [1]: reduced
level of proIL-1β in the cell lysates [1]: reduced
IL-1β secretion in the culture medium [2]: reduced
IL-1β production in the culture medium (human THP-1 macrophages; FIG. 4, p<0.05 and p<0.001 compared to MSU alone): reduced
TNF-α production in the culture medium (human THP-1 macrophages; FIG. 5, p<0.05 and p<0.001 compared to MSU alone): reduced
IL-6 production in the culture medium (human THP-1 macrophages; FIG. 6, p<0.001 compared to MSU alone): reduced
IL-1β secretion in the culture medium [3]: reduced
MSU-induced IL-1β production in the murine peritoneal fluid (C57BL/6 mice; FIG. 7): significantly reduced
MSU-induced IL-6 production in the murine peritoneal fluid (C57BL/6 mice; FIG. 8): significantly reduced
levels of MSU-induced Ly-6G+ neutrophils in the peritoneal fluid (C57BL/6 mice; flow cytometry, FIG. 9): significantly reduces

Reference: US10124017B2, “Use of Ginsenoside M1 for preventing or treating gout” (priority 2015, dated 2018)
